Experiments:
[1] = test system: hippocampal neurons; test: Binding of biotinylated probe to cultured hippocampal neurons (streptavidin-AlexaFluor 488 imaging); type: cell-based, rat; conditions: 3 mM, 10 μM PAO; for labeling of neurons after de-lipidation: neurons de-lipidated with MeOH/CHCl3; for binding to hippocampal neurons: 1 h, E18 neurons 23 days in vitro
Description: Hippocampal neurons were cultured using a procedure modified from Goslin and Banker, in Culturing Nerve Cells, Banker, G., Goslin, K., Eds., pp. 251-281, MIT Press: Cambridge, Mass. 1991. Briefly, the hippocampi of embryonic day 18 (E18) rats were dissected and transferred to 4.5 mL of ice-cold Calcium and Magnesium Free-Hank's Balanced Salt Solution (CMF-HBSS). Trypsin (2.5%, no EDTA) was added to 5 mL, and the tissue was incubated for 15 min at 37° C. The trypsin solution was removed and the tissue sample washed three times with 5 mL of CMF-HBSS. Cells were then dissociated from the tissue in 1 mL of CMF-HBSS by passing through a P1000 pipet tip twenty times. The cells were counted, diluted into Minimal Eagle's Medium (MEM) plus 10% fetal bovine serum, and seeded on poly-DL-ornithine-coated glass coverslips (Carolina Biological) at a density of 75 cells/mm2 (100 μL/coverslip) for 30 min. After this time, 500 μL of supplemented Neurobasal medium (47.5 mL Neurobasal medium without Lglutamine; 0.5 mL L-glutamine (200 mM); 0.5 mL penicillin/streptomycin (10,000 U/mL); 0.5 mL antibiotic-antimycotic (100× stock), 1.0 mL B-27 serum-free supplement (50× stock); 50 μL of 0.5 M kynurenic acid in 1 N NaOH) was added to each coverslip. The use of kynurenic acid to block glutamate receptor ion channels and enhance neuronal health and survival is standard protocol for neuronal cultures. Id. The cultures were maintained in 5% CO2 at 37° C. in supplemental Neurobasal medium.
After 23 days in culture, the medium was replaced, and neurons were treated with the endocytosis inhibitor phenylarsine oxide (PAO; 4 μL in DMSO, final concentration 10 μM) (Nouel, D., et al., J. Neurosci. 17:1795-1803 (1997)) and either compound III (24 μL in PBS, final concentration 3 mM), or biotin (24 μL in PBS, final concentration 3 mM), in supplemented Neurobasal medium (400 μL final volume) for 1 h at 37° C., 5% CO2. After 1 h, neurons were rinsed 2 times with PBS, fixed in 4% paraformaldehyde for 20 min at rt, washed 2 times with PBS, permeabilized in 0.3% Triton X-100 for 5 min at rt, and washed 2 times with PBS. Non-specific binding was blocked with 3% BSA for 1 h at rt and then rinsed one time with PBS. Compound III was detected with streptavidin conjugated to AlexaFluor 488 (1:200, Molecular Probes). Dye-conjugated streptavidin was added in 3% BSA for 1 h at 37° C. and the excess reagent washed off 5 times with PBS. Coverslips were then mounted onto slides with Vectashield, sealed, and imaged using confocal laser microscopy. Results can be seen in FIG. 2.
De-lipidation was performed on some samples following the protocol of Yavin, E. et al., J. Neurosci. Res. 9:229-237 (1983). Briefly, after 23 days in culture, cells were rinsed once with PBS then exposed to MeOH/CHCl3 (½ by vol.) for 15 min at −80° C. This procedure fixes the cells to the coverslip and extracts cellular lipids. After removing the MeOH/CHCl3 mixture, coverslips were dried at rt then incubated with 3% BSA for 1 hr at rt. After one rinse with PBS, neurons were treated with PAO and the procedure described above was followed.

[2] = test system: hippocampal neurons; test: Neurite outgrowth of hippocampal neurons treated with carbohydrate-PAA conjugates; type: cell-based, rat; conditions: FIG. 4B, concentration and valency series
Description: Hippocampal neurons were cultured using a procedure modified from Goslin and Banker, in Culturing Nerve Cells, Banker, G., Goslin, K., Eds., pp. 251-281, MIT Press: Cambridge, Mass. 1991. Briefly, the hippocampi of embryonic day 18 (E18) rats were dissected and transferred to 4.5 mL of ice-cold Calcium and Magnesium Free-Hank's Balanced Salt Solution (CMF-HBSS). Trypsin (2.5%, no EDTA) was added to 5 mL, and the tissue was incubated for 15 min at 37° C. The trypsin solution was removed and the tissue sample washed three times with 5 mL of CMF-HBSS. Cells were then dissociated from the tissue in 1 mL of CMF-HBSS by passing through a P1000 pipet tip twenty times. The cells were counted, diluted into Minimal Eagle's Medium (MEM) plus 10% fetal bovine serum, and seeded on poly-DL-ornithine-coated glass coverslips (Carolina Biological) at a density of 75 cells/mm2 (100 μL/coverslip) for 30 min. […]
The association of Fucα(1-2)Gal with potential lectins was studied to determine if it would stimulate neuronal growth. […] The cultures were incubated in 5% CO2 at 37° C. and analyzed. […]
For each experiment, 50 randomly selected cells were analyzed per coverslip using similar quantitative analysis techniques reported by Schmid et al., J. Neurosci. […] Briefly, only neurites longer than ˜10 μm and not in contact with other cells were measured using NIH Image 1.62 software. […]

C[C@@H]1O[C@@H](O[C@H]2[C@H](OCCOCCNC(=O)CCCC[C@@H]3SC[C@@H]4NC(=O)N[C@@H]43)O[C@H](CO)[C@H](O)[C@@H]2O)[C@@H](O)[C@H](O)[C@@H]1O [Compound III]
labeling of neurons after de-lipidation [1]: labeling was not diminished | labeling of neurons after de-lipidation ([1]; listed as probe III): does not alter the labeling | binding to hippocampal neurons [1]: binds | binding to hippocampal neurons ([1]; listed as compound III): binding of compound III to the cell body and neurite processes | neurite outgrowth activity [2]: only modest activity

From patent US7858578B2, “Methods of inducing neuronal growth by a Fucose-α(1-2) galactose (fuc-α(1-2) gal) moiety and a lectin” (California Institute of Technology, priority 2004, dated 2010)
